From US20140288043A1, “PYRAZOLOPYRIDINE COMPOUNDS” (Genentech, Inc., priority 2013, published 2014) come the findings set out here.

Each structure is given as a SMILES string.

Chain of LRRK2 (Q5S007 whole entry G2019S, form open, the tested form may be a part): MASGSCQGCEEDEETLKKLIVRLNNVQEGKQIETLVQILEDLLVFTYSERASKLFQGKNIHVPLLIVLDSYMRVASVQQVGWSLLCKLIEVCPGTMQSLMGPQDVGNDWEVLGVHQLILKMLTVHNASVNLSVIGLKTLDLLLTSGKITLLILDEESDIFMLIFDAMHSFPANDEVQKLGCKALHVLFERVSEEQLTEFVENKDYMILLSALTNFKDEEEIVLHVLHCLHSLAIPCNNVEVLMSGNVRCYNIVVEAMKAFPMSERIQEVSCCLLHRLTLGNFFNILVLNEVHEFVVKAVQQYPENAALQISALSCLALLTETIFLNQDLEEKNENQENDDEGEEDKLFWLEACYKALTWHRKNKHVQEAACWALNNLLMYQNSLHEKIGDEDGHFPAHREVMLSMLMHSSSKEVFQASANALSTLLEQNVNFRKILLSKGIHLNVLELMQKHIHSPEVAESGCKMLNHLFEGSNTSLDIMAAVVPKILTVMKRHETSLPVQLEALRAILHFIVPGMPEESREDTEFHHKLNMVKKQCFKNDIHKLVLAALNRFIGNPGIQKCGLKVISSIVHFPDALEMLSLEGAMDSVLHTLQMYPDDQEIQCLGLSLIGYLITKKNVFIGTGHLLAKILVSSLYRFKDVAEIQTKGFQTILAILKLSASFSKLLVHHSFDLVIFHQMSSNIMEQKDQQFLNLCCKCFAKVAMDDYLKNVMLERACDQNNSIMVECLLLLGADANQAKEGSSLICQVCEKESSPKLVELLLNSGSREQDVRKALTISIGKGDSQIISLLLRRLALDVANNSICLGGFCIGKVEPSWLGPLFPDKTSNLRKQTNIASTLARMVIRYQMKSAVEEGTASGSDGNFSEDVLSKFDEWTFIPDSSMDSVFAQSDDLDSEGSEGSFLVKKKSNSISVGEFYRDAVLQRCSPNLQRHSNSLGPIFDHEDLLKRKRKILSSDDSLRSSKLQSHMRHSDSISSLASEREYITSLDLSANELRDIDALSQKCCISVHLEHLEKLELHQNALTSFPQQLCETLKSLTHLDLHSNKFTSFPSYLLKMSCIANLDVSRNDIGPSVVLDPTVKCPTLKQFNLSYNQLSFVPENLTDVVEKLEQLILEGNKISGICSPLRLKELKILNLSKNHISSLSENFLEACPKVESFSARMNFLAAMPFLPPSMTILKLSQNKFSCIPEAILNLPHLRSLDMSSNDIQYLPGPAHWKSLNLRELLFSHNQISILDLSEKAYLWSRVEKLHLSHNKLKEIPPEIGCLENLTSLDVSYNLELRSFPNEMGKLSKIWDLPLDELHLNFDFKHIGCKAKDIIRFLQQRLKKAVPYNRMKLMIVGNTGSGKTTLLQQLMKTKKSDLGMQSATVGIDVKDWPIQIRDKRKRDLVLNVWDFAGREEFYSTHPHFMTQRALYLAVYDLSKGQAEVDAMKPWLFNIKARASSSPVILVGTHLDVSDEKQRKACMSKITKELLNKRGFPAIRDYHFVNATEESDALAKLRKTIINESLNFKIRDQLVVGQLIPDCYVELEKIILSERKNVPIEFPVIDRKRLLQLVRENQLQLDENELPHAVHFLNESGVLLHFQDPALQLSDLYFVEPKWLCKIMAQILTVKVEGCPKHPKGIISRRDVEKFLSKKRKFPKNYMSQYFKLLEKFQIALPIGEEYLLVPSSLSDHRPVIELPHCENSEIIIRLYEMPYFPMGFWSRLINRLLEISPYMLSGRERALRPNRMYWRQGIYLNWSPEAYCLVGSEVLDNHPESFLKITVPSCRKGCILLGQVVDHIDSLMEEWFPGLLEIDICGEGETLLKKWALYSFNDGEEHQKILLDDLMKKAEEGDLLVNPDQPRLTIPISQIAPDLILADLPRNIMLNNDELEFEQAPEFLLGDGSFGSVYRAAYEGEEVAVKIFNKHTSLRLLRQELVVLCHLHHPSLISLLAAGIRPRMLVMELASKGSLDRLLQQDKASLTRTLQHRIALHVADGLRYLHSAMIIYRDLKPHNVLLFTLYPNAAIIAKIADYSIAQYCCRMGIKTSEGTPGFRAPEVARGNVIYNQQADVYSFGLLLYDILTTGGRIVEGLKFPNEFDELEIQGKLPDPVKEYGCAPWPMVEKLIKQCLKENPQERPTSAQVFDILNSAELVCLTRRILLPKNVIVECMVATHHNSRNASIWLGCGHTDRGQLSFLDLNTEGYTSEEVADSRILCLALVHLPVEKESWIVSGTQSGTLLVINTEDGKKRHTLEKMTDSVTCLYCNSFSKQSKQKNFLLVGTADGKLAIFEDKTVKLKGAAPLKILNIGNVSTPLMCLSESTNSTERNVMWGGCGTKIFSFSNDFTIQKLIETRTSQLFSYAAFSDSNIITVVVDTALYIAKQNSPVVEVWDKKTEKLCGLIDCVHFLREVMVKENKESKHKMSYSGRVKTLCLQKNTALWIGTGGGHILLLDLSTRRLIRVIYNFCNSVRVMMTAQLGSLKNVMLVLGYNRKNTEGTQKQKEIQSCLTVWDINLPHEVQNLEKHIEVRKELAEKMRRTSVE

The target in the experiment is LRRK2 (Homo sapiens, UniProt Q5S007). As to the kind of experiment: LRRK2 protein kinase assay ([γ-33P] ATP, peptide substrate), KI values of Table 1. To be noted: LRRK2 affinity values. The class given is biochemical. The text has this:
All LRRK2 protein kinases were of human origin and were sourced from Invitrogen Corporation (Carlsbad, Calif. 92008 USA) unless otherwise indicated. The active mutant used was recombinant human, catalytic domain (amino acids 970-2527) containing a G2019S mutation, GST-tagged, expressed in insect cells (Invitrogen Cat#PV4881). The wild type used was recombinant human, catalytic domain (amino acids 970-2527) GST-tagged, expressed in insect cells (Invitrogen Cat#PV4873). The kinase dead mutant used was recombinant human, catalytic domain (amino acids 970-2527) containing a D1994A mutation, GST-tagged, expressed in insect cells (Invitrogen Cat#PM4041AE). No special measures were taken to activate any of the kinases.
All assays were carried out at room temperature (˜21° C.) and were linear with respect to time and enzyme concentration under the conditions used. Assays were performed for 180 min in a 96 well format. LRRK2 was present at a concentration of approximately 5 nM. The enzyme was diluted and assayed in 50 mM Tris-HCl pH7.5, 0.1 mM EGTA, 1 mM DTT and 10 mM MgCl2. The concentration of magnesium chloride in the assay was 10 mM. The [γ-33P] ATP (0.4 μCi/well) was used at 134 uM for G2019S mutant and at 57 μM for the wild type kinase in order to be at Km. The peptide substrate in the assay was […] at 100 μM.
The assays were initiated with Mg/ATP and stopped by the addition of 25 μl/well 50% orthophosphoric acid. Reactions were harvested onto Whatman P81 Unifilter Plates (Fisher Scientific. Loughborough, LE115RG, UK. Cat# FDU-105-020U) using a Tomtec harvester. (Tomtec Hamden, Conn. 06514. USA) Plates were counted using a Perkin Elmer Top Count NX7. (Perkin Elmer, Shelton Conn. 06484-4794 USA)
IC50 values of inhibitors were determined after carrying out assays at 10 different concentrations of each compound in duplicate.
In turn, `CC(C)Nc1nccc2[nH]nc(-c3cc(N4CCOCC4)ncn3)c12` [Compound 4, N-isopropyl-3-(6-morpholinopyrimidin-4-yl)-1H-pyrazolo[4,3-c]pyridin-4-amine] yielded a Ki of 1.1 nM.
The value for `CCc1cc(-c2n[nH]c3ccnc(NC(C)C)c23)nn1C` [Compound 11, 3-(5-ethyl-1-methyl-1H-pyrazol-3-yl)-N-isopropyl-1H-pyrazolo[4,3-c]pyridin-4-amine] was 3.5 nM; that for `Cc1cc(C(F)(F)F)cc(-c2n[nH]c3ccnc(NC4CCOCC4)c23)n1` [Compound 70, 3-(6-methyl-4-(trifluoromethyl)pyridin-2-yl)-N-(tetrahydro-2H-pyran-4-yl)-1H-pyrazolo[4,3-c]pyridin-4-amine] was 0.7 nM.
The molecule `CC(C)Nc1nccc2[nH]nc(-c3cc(C4CCOC4)ncn3)c12` (centres unmarked) [Compound 48, N-isopropyl-3-(6-(tetrahydrofuran-3-yl)pyrimidin-4-yl)-1H-pyrazolo[4,3-c]pyridin-4-amine] showed an inhibition constant Ki of 12 nM.
In turn, `Cc1cc2[nH]nc(-c3cc(C(F)(F)F)ccn3)c2c(NC2CCOCC2)n1` [Compound 51, 6-methyl-N-(tetrahydro-2H-pyran-4-yl)-3-(4-(trifluoromethyl)pyridin-2-yl)-1H-pyrazolo[4,3-c]pyridin-4-amine] showed a Ki of 39.9 nM.
Turning to `Cc1cccc(-c2n[nH]c3ccnc(NC4CCOCC4)c23)n1` [Compound 28, 3-(6-methylpyridin-2-yl)-N-(tetrahydro-2H-pyran-4-yl)-1H-pyrazolo[4,3-c]pyridin-4-amine], the inhibition constant (Ki) worked out at 1.8 nM.
In the case of `CCNc1nccc2[nH]nc(-c3cn(CCOC)nn3)c12` [Compound 14, N-ethyl-3-(1-(2-methoxyethyl)-1H-1,2,3-triazol-4-yl)-1H-pyrazolo[4,3-c]pyridin-4-amine], the affinity corresponds to a Ki of 22.5 nM.
The value for `CC(C)Nc1nccc2[nH]nc(-c3nc(C4CC4)n(C)n3)c12` [Compound 42, 3-(5-cyclopropyl-1-methyl-1H-1,2,4-triazol-3-yl)-N-isopropyl-1H-pyrazolo[4,3-c]pyridin-4-amine] was 213 nM.
The value for `CC(C)Nc1nccc2[nH]nc(-c3cc(-c4ccnn4C)ccn3)c12` [Compound 36, N-isopropyl-3-(4-(1-methyl-1H-pyrazol-5-yl)pyridin-2-yl)-1H-pyrazolo[4,3-c]pyridin-4-amine] was 3.7 nM; that for `CC(C)Nc1nccc2[nH]nc(-c3cc(-c4ccn(C)n4)ccn3)c12` [Compound 46, N-isopropyl-3-(4-(1-methyl-1H-pyrazol-3-yl)pyridin-2-yl)-1H-pyrazolo[4,3-c]pyridin-4-amine] was 1 nM.
The value for `CC(C)Nc1nccc2[nH]nc(-c3ccncn3)c12` [Compound 15, N-isopropyl-3-(pyrimidin-4-yl)-1H-pyrazolo[4,3-c]pyridin-4-amine] was 20.9 nM; that for `CCNc1nccc2[nH]nc(-c3cc(C#N)ccn3)c12` [Compound 25, 2-(4-(ethylamino)-1H-pyrazolo[4,3-c]pyridin-3-yl)isonicotinonitrile] was 14.2 nM.
For `CCNc1nccc2[nH]nc(-c3cn(C)cn3)c12` [Compound 12, N-ethyl-3-(1-methyl-1H-imidazol-4-yl)-1H-pyrazolo[4,3-c]pyridin-4-amine], the Ki was 33.7 nM.
Molecule `Cc1c(-c2ccnc(-c3n[nH]c4ccnc(NC(C)C)c34)c2)cnn1C` [Compound 44, 3-(4-(1,5-dimethyl-1H-pyrazol-4-yl)pyridin-2-yl)-N-isopropyl-1H-pyrazolo[4,3-c]pyridin-4-amine] gave a Ki of 1.1 nM.
Then `Cc1cc(C(=O)N(C)C)cc(-c2n[nH]c3ccnc(NC4CCOCC4)c23)n1` [Compound 64, N,N,2-trimethyl-6-(4-((tetrahydro-2H-pyran-4-yl)amino)-1H-pyrazolo[4,3-c]pyridin-3-yl)isonicotinamide], with 16.6 nM; and `N#Cc1ccnc(-c2n[nH]c3ccnc(NC4CCOCC4)c23)c1` [Compound 26, 2-(4-((tetrahydro-2H-pyran-4-yl)amino)-1H-pyrazolo[4,3-c]pyridin-3-yl)isonicotinonitrile], with 3.8 nM; and `CC(C)Nc1nccc2[nH]nc(-c3cc(C(=O)N(C)C)ccn3)c12` [Compound 55, 2-(4-(isopropylamino)-1H-pyrazolo[4,3-c]pyridin-3-yl)-N,N-dimethylisonicotinamide], with 46.9 nM.
The molecule `FC(F)(F)c1cc(-c2n[nH]c3ccnc(NC4CC5CCC(C4)O5)c23)ncn1` (centres unmarked) [Compound 77, N-(8-oxabicyclo[3.2.1]octan-3-yl)-3-(6-(trifluoromethyl)pyrimidin-4-yl)-1H-pyrazolo[4,3-c]pyridin-4-amine] showed a Ki of 22.6 nM.
As to `CC(C)Nc1nccc2[nH]nc(-c3ccccn3)c12` [Compound 13, N-isopropyl-3-(pyridin-2-yl)-1H-pyrazolo[4,3-c]pyridin-4-amine], the affinity, expressed as Ki, was 11 nM.
Then `FC(F)(F)c1cc(-c2n[nH]c3ccnc(NC(C4CC4)C4CC4)c23)ncn1` [Compound 73, N-(dicyclopropylmethyl)-3-(6-(trifluoro-methyl)pyrimidin-4-yl)-1H-pyrazolo[4,3-c]pyridin-4-amine], with 2.5 nM; and `Cc1nccc(-c2n[nH]c3ccnc(NC4CCOCC4)c23)n1` [Compound 33, 3-(2-methylpyrimidin-4-yl)-N-(tetrahydro-2H-pyran-4-yl)-1H-pyrazolo[4,3-c]pyridin-4-amine], with 1 nM; and `CC(C)Nc1nccc2[nH]nc(-c3nccc(N4CCOCC4)n3)c12` [Compound 2, N-isopropyl-3-(4-morpholinopyrimidin-2-yl)-1H-pyrazolo[4,3-c]pyridin-4-amine], with 78.5 nM.
Then `FC(F)(F)CNc1nccc2[nH]nc(-c3ccccn3)c12` [Compound 43, 3-(pyridin-2-yl)-N-(2,2,2-trifluoroethyl)-1H-pyrazolo[4,3-c]pyridin-4-amine], with 8.8 nM.
Then `Cc1cc2[nH]nc(-c3cc(C(F)(F)F)ncn3)c2c(NC2CCOCC2)n1` [Compound 57, 6-methyl-N-(tetrahydro-2H-pyran-4-yl)-3-(6-(trifluoromethyl)pyrimidin-4-yl)-1H-pyrazolo[4,3-c]pyridin-4-amine], with 66.3 nM; and `CC(C)Nc1nccc2[nH]nc(-c3cc(Cl)ccn3)c12` [Compound 30, 3-(4-chloropyridin-2-yl)-N-isopropyl-1H-pyrazolo[4,3-c]pyridin-4-amine], with 2.5 nM.
As to `CC(C)n1cnc(-c2n[nH]c3ccnc(NC4CCOCC4)c23)c1` [Compound 6, 3-(1-isopropyl-1H-imidazol-4-yl)-N-(tetrahydro-2H-pyran-4-yl)-1H-pyrazolo[4,3-c]pyridin-4-amine], the affinity, expressed as Ki, was 3.3 nM.
The value for `CC(C)Nc1nccc2[nH]nc(-c3cc(S(=O)(=O)C(C)C)ccn3)c12` [Compound 74, N-isopropyl-3-(4-(isopropylsulfonyl)pyridin-2-yl)-1H-pyrazolo[4,3-c]pyridin-4-amine] was 25.8 nM; that for `c1cc(-c2n[nH]c3ccnc(NC4CCOCC4)c23)ncn1` [Compound 18, 3-(pyrimidin-4-yl)-N-(tetrahydro-2H-pyran-4-yl)-1H-pyrazolo[4,3-c]pyridin-4-amine] was 6 nM.
`CC(C)Nc1nccc2[nH]nc(-c3cc(-c4cccnc4F)ccn3)c12` [Compound 37, 3-(2-fluoro-[3,4′-bipyridin]-2′-yl)-N-isopropyl-1H-pyrazolo[4,3-c]pyridin-4-amine] displayed a Ki of 3.1 nM. This Ki is about 1.9-fold lower than that of the molecule before.
In the case of `CCNc1nccc2[nH]nc(-c3cc(C(F)(F)F)ncn3)c12` [Compound 27, N-ethyl-3-(6-(trifluoromethyl)pyrimidin-4-yl)-1H-pyrazolo[4,3-c]pyridin-4-amine], the affinity, expressed as Ki, was 31.8 nM.
Then `FC1(F)CCC(Nc2nccc3[nH]nc(-c4ccncn4)c23)CC1` [Compound 38, N-(4,4-difluorocyclohexyl)-3-(pyrimidin-4-yl)-1H-pyrazolo[4,3-c]pyridin-4-amine], with 16.4 nM.
The value for `CCNc1nccc2[nH]nc(-c3cc(C(F)(F)F)ccn3)c12` [Compound 21, N-ethyl-3-(4-(trifluoromethyl)pyridin-2-yl)-1H-pyrazolo[4,3-c]pyridin-4-amine] was 9.4 nM.
The value for `CC(C)Nc1nccc2[nH]nc(-c3cc(C4CCOCC4)ncn3)c12` [Compound 47, N-isopropyl-3-(6-(tetrahydro-2H-pyran-4-yl)pyrimidin-4-yl)-1H-pyrazolo[4,3-c]pyridin-4-amine] was 3.8 nM.
As for `CC(C)Nc1nccc2[nH]nc(-c3cc(C4CCCO4)ncn3)c12` (centres unmarked) [Compound 54, N-isopropyl-3-(6-(tetrahydrofuran-2-yl)pyrimidin-4-yl)-1H-pyrazolo[4,3-c]pyridin-4-amine], the Ki amounted to 28.7 nM.
Turning to `CCOc1cc(-c2n[nH]c3cc(C)nc(NC4CCOCC4)c23)ncn1` [Compound 58, 3-(6-ethoxypyrimidin-4-yl)-6-methyl-N-(tetrahydro-2H-pyran-4-yl)-1H-pyrazolo[4,3-c]pyridin-4-amine], the inhibition constant (Ki) was 39.1 nM.

By Ki is commonly meant a dissociation constant, usually derived from enzyme kinetics or from competition with a known ligand.
